T1: GlyT1b (hGlyT1b; Flag-Glyt1b) (Homo sapiens, UniProt P48067)
T1 sequence (P48067 15-652 isoform P48067-3): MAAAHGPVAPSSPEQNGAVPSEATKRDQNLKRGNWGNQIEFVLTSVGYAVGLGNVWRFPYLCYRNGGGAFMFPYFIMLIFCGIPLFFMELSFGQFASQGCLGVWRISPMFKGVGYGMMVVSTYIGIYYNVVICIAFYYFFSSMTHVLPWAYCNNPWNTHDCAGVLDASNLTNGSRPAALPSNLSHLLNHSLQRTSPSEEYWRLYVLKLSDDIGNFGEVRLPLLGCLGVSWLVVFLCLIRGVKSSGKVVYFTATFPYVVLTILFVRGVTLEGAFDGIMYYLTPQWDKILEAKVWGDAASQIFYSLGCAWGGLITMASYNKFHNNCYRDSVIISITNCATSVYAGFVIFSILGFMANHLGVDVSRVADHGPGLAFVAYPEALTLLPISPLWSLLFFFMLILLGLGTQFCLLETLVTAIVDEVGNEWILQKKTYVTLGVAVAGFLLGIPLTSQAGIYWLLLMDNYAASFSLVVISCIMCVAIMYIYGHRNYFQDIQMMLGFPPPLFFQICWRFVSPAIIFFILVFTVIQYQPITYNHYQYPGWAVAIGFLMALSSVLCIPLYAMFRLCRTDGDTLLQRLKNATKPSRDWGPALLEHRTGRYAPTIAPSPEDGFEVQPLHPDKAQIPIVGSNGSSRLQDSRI

B1: GlyT1b (hGlyT1b; Flag-Glyt1b) (Homo sapiens) (protein)
chain: T1 sequence (P48067 15-652 isoform P48067-3)

Columns and labels:
[1] = biological target: T1, GlyT1b (hGlyT1b; Flag-Glyt1b); assay: displacement of […] [3H]CHIBA-3007, membrane filtration assay; format: binding; settings: 150 mM NaCl, 10 mM HEPES pH 7.4, RT
[2] = substrate: NCC(=O)O; assay: [3H]glycine uptake into transfected HEK MSR cells; format: cell-based, Homo sapiens; settings: 0.05-200 µM glycine

Molecule | KI [1] [mM] | Km [2] [µM]
NCC(=O)O [glycine] | 0.33 ± 0.01 | 
B1 |  | 35.2 ± 2.1
